Drawing on US9371331B2, “Modulators of methyl modifying enzymes, compositions and uses thereof” (Constellation Pharmaceuticals, Inc., priority 2012, dated 2016), this text covers IC50 and EC50 for 16 molecules.

For one assay, the target named is Y641N EZH2 (Homo sapiens, UniProt Q15910, Y641N). In words: Y641N EZH2 assay: as EZH2 assay, with reconstituted H3K27Me2 oligonucleosomes as substrate. The class given is biochemical.
The subject of assay [1] is H3K27me3 mark in HeLa cells. Put plainly: H3K27me3 MSD Hela Assay. The class given is cell-based. The conditions noted are these: Homo sapiens, read-out: H3K27me3_MSD_HeLa_ (EC50). As to the method:
Trypsinized HeLa cells were counted and diluted in 10% DMEM (Life Technologies, Cat. #10569) to 5000 cells/75 μL. Seventy-five […] of cells were place in each well of a 96-well flat-bottomed plate and incubated at 37° C. for 4 hours. Twenty-five μL of test compound (at various concentrations) was added to the cells and incubation continued at 37° C. for 96 hours. Media was then removed and the cells rinsed once with ice cold PBS. Forty μL of ice-cold MSD Buffer AT (10 mM HEPES, pH 7.9, 5 mM MgCl2, 0.25M sucrose, Benzonase (1:10000), 1% Triton X-100 supplemented with fresh 1× Protease Inhibitor cocktail and 1 mM 4-(2-Aminoethyl)benzenesulfonyl fluoride hydrochloride (AEBSF)) was added to each well and the plates placed on ice for 30 minutes. Ten μL of 5M NaCl was then added to each well and incubation on ice continued for another 15 minutes. The material in each well was suspended pipetting up and down and then transferred to a new 96 well plate. The emptied wells were rinsed with 150 uL ice-cold 20 mM Tris pH 7.5, 1 mM EDTA, 1 mM EGTA, supplemented with fresh 1× Protease Inhibitor cocktail and 1 mM AEBSF (“NO salt NO detergent buffer) and transferred to the respective wells in the new plate. Three hundred μL of NO Salt NO detergent buffer was then added to each well of lysates and the plates frozen at −80° C.
On the same day, an appropriate number of MSD standard bind 96-well plates were coated with 30 μL/well of total H3 capture antibody (Millipore. Cat #MAB3422) at 1 μg/mL concentration in PBS. The antibody solution was evenly distributed first by tapping gently on the sides of the plates and then by shaking the plates for a few minutes at 1000 rpm. Antibody coated plates were stored at 4° C. overnight.
The next day the lysates are thawed to RT. The antibody coated MSD plates are washed 3× with TBS-T (Tris-buffered saline (Fisher Scientific, Cat #BP2471-1)+0.2% Tween-20). One-hundred fifty μL of 5% Blocker A in TBS-T is added to each well. The wells are covered and shaken on a shaker at RT for one hour. The Blocker A step is repeated a second time. After removing the blocker, 25 μL of cell lysate is transferred into each antibody coated well. The plates are shaken for 2 hours at RT, the lysate removed and the plates again washed with Blocker A in TBS-T. Twenty-five μL of appropriate freshly prepared antibody mix (including both primary and secondary antibodies) is added to each well and the plates shaken for 1 hour at RT.
Both H3 antibodies were obtained from Cell Signalling (Cat #s 4499 and 9733). The goat anti-rabbit antibody was obtained from Meso-Scale Discovery (Cat #R32AB-1).
The antibody mix was then removed and the wells washed with Blocker A. One hundred-fifty μL of freshly prepared 1×MSD Read Buffer (Meso-Scale Discovery; Cat #R927C-2) was then added to each well and the plates read on a MSD Sector 2400 Plate Reader.
Data was analyzed using Assay Assistant (Constellation Pharmaceuticals In-house product) and Activity Base (IDBS Ltd, Surrey, UK) template. Data files were imported to Assay Assistant and assay conditions were specified. A unique Analysis ID was created and the data files exported to Activity Base. An analysis template was created on Activity Base to measure dose-dependent inhibition of H3K27me3 mark and cell viability respectively. Readout of DMSO wells were used to normalize the data. Resulting curves were fitted using Activity base software Model 205 (IDBS Ltd. Surrey, UK). The data was checked for quality, validated and integrated in excel format using SARview (IDBS Ltd, Surrey, UK).

For the next assay, the target named is EZH2 (rPRC2) (Homo sapiens, UniProt Q15910). In words: EZH2 assay: rPRC2, biotinylated oligonucleosomes, 3H SAM methyl transfer (FlashPlate scintillation). The conditions noted are these: biotinylated oligonucleosome substrate. The class given is biochemical.
Setting [2] is: Y641N EZH2 IC50, Y641N mutant EZH2, H3K27Me2 oligonucleosome substrate.
Setting [3] is: EZH2 IC50, wild-type EZH2 (rPRC2).
[4] abbreviates: Y641N mutant EZH2, H3K27Me2 oligonucleosome substrate, read-out: Y641N EZH2 IC50.
Where [5] appears, read: wild-type EZH2 (rPRC2), read-out: EZH2 IC50.

Each structure is given as a SMILES string. Where two headings read alike, the source gives them in different places. Bounds are passed on as bounds.

Sequence of Y641N EZH2 (Q15910 whole entry Y641N): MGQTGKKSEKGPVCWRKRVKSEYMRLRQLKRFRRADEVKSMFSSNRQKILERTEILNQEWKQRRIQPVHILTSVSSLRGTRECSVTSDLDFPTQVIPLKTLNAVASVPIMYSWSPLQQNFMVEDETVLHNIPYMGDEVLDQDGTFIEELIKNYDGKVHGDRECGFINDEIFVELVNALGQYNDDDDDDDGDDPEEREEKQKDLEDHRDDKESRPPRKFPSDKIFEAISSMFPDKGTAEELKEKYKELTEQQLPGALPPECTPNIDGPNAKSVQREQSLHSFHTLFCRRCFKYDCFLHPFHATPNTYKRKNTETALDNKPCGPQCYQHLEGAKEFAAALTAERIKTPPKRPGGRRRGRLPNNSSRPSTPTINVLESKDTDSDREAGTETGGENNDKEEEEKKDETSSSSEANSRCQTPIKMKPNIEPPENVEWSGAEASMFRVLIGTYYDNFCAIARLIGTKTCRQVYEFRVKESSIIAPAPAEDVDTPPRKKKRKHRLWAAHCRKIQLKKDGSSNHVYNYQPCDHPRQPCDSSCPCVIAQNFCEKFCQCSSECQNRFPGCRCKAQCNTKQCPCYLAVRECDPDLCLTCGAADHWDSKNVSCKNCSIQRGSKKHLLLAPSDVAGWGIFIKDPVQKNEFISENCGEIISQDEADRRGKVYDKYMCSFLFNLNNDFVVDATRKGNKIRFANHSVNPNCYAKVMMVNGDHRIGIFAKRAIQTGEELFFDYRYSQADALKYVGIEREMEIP
Sequence of Y641N EZH2 (O75530 whole entry partner): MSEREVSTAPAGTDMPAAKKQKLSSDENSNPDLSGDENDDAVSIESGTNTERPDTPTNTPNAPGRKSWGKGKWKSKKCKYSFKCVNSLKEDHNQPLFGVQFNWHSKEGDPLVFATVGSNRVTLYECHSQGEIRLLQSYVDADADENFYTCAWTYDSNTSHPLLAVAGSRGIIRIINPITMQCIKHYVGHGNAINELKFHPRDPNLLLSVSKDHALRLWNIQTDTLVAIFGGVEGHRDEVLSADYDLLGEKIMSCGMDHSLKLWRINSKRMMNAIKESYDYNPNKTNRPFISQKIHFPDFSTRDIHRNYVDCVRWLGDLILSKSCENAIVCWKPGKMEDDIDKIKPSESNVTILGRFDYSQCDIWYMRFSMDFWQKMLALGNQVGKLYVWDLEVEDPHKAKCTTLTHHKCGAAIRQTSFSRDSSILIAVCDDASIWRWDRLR
Sequence of Y641N EZH2 (Q15022 whole entry partner): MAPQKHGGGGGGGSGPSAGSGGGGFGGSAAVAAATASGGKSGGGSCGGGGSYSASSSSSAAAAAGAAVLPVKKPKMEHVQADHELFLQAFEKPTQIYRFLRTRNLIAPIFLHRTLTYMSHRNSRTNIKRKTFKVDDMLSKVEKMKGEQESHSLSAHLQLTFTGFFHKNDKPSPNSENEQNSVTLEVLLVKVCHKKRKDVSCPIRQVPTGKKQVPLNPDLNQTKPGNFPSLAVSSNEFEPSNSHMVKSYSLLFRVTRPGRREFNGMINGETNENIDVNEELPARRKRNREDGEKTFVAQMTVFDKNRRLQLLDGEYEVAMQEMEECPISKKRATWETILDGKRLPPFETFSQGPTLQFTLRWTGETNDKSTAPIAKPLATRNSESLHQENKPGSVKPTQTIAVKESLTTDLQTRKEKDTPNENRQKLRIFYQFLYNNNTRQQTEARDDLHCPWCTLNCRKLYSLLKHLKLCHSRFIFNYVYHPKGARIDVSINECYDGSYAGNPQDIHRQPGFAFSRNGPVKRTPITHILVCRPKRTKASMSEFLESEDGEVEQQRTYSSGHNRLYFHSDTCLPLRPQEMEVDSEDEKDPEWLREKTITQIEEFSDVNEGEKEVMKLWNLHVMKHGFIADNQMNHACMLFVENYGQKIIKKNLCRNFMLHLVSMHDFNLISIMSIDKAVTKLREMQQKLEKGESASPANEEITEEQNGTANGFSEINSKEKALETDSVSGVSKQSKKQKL
Sequence of EZH2 (rPRC2) (Q15910 whole entry): as the sequence (Q15910 whole entry Y641N) above, with N641Y counted along it
Sequence of EZH2 (rPRC2) (O75530 whole entry partner): as the sequence (O75530 whole entry partner) above
Sequence of EZH2 (rPRC2) (Q15022 whole entry partner): as the sequence (Q15022 whole entry partner) above

One may read the IC50 as the concentration needed to halve the response being measured. Broadly, the EC50 is the concentration giving half of the maximal effect. As to `COc1cc(C)[nH]c(=O)c1CNC(=O)c1c(C)n(C(C)c2ccccc2)c2cnccc12` (single isomer, unassigned) [Compound 258, (R or S)-N-((4-methoxy-6-methyl-2-oxo-1,2-dihydropyridin-3-yl)methyl)-2-methyl-1-(1-phenylethyl)-1H-pyrrolo[2,3-c]pyridine-3-carboxamide], the IC50 against Y641N EZH2 (setting [2]) and at EZH2 (rPRC2) (setting [3]) was below 100 nM each time. In assay [1] (HeLa, 96 h), the EC50 is 400 to 2000 nM.

As to `COc1cc(C)[nH]c(=O)c1CNC(=O)c1c(C)n(C(C)CS(C)(=O)=O)c2ccccc12` (single isomer, unassigned) [Compound 279, (R or S)-N-((4-methoxy-6-methyl-2-oxo-1,2-dihydropyridin-3-yl)methyl)-2-methyl-1-(1-(methylsulfonyl)propan-2-yl)-1H-indole-3-carboxamide], the IC50 was 100 to 1000 nM at Y641N EZH2 (setting [2]) and below 100 nM on EZH2 (rPRC2) (setting [3]). Moreover, in assay [1] (HeLa, 96 h), the EC50 was 2000 to 10000 nM.

On to `COc1cc(C)[nH]c(=O)c1CNC(=O)c1c(C)n([C@H](C)[C@H](OC)C2CC2)c2ncccc12` (single isomer, unassigned) [Compound 286, 1-((1R or S, 2R or S)-1-cyclopropyl-1-methoxypropan-2-yl)-N-((4-methoxy-6-methyl-2-oxo-1,2-dihydropyridin-3-yl)methyl)-2-methyl-1H-pyrrolo[2,3-b]pyridine-3-carboxamide], for which the IC50 is 100 to 1000 nM against Y641N EZH2 (setting [2]) and below 100 nM against EZH2 (rPRC2) (setting [3]). Further, in assay [1] (HeLa, 96 h), the EC50 fell in the range of 400 to 2000 nM.

Turning to `COc1cc(C)[nH]c(=O)c1CNC(=O)c1c(C)n(C(C)C2CCOCC2)c2ncncc12` (single isomer, unassigned) [Compound 319, (R or S)-N-((4-methoxy-6-methyl-2-oxo-1,2-dihydropyridin-3-yl)methyl)-6-methyl-7-(1-(tetrahydro-2H-pyran-4-yl)ethyl)-7H-pyrrolo[2,3-d]pyrimidine-5-carboxamide], the IC50 against Y641N EZH2 (setting [2]) and against EZH2 (rPRC2) (setting [3]) was below 100 nM each time. Moreover, the EC50 in assay [1] (HeLa, 96 h) is below 400 nM.

`COc1ccc2c(C(=O)NCc3c(OC)cc(C)[nH]c3=O)c(C)n(C(C)C3CCOCC3)c2c1` (single isomer, unassigned) [Compound 321, (R or S)-6-methoxy-N-((4-methoxy-6-methyl-2-oxo-1,2-dihydropyridin-3-yl)methyl)-2-methyl-(1-(tetrahydro-2H-pyran-4-yl)ethyl)-1 H-indole-3-carboxamide]: the IC50 at Y641N EZH2 (setting [2]) and against EZH2 (rPRC2) (setting [3]) was below 100 nM each time. For the same molecule, in assay [1] (HeLa, 96 h), the concentration giving a half-maximal response (EC50) is below 400 nM.

On to `COc1cc(C)[nH]c(=O)c1CNC(=O)c1c(C)n(C(C)C2CCN(C(=O)OC(C)(C)C)CC2)c2ccccc12` (single isomer, unassigned) [Compound 327, (R or S)-tert-butyl 4-(1-(3-((4-methoxy-6-methyl-2-oxo-1,2-dihydropyridin-3-yl)methylcarbamoyl)-2-methyl-1H-indol-1-yl)ethyl)piperidine-1-carboxylate], for which the half-inhibitory concentration (IC50) against Y641N EZH2 (setting [2]) and against EZH2 (rPRC2) (setting [3]) was below 100 nM each time. Further, the EC50 in assay [1] (HeLa, 96 h) was below 400 nM.

With `Cc1cc(C)c(CNC(=O)c2c(C)n([C@H](C)c3ccccc3)c3nc(N4CCOCC4)ncc23)c(O)n1` [Compound 143, (R)—N-((2-hydroxy-4,6-dimethylpyridin-3-yl)methyl)-6-methyl-2-morpholino-7-(1-phenylethyl)-7H-pyrrolo[2,3-d]pyrimidine-5-carboxamide], the IC50 against Y641N EZH2 (setting [2]) is 1000 to 10000 nM; at EZH2 (rPRC2) (setting [3]), below 100 nM. For the same molecule, the EC50 in assay [1] (HeLa, 96 h) lay within 2000 to 10000 nM.

In the case of `Cc1cc(C)c(CNC(=O)c2c(C)n([C@H](C)c3ccccc3)c3nc(N)ncc23)c(O)n1` [Compound 144, (R)-2-amino-N-((2-hydroxy-4,6-dimethylpyridin-3-yl)methyl)-6-methyl-7-(1-phenylethyl)-7H-pyrrolo[2,3-d]pyrimidine-5-carboxamide], the IC50 against Y641N EZH2 (setting [2]) is 100 to 1000 nM; against EZH2 (rPRC2) (setting [3]), below 100 nM. In assay [1] (HeLa, 96 h), the EC50 fell in the range of 2000 to 10000 nM.

Turning to `Cc1cc(C)c(CNC(=O)c2c(C)n(S(=O)(=O)c3ccccc3)c3ccccc23)c(O)n1` [Compound 145, N-((4,6-dimethyl-2-oxo-1,2-dihydropyridin-3-yl)methyl)-2-methyl-1-(phenylsulfonyl)-1H-indole-3-carboxamide], the concentration for half-maximal inhibition (IC50) is 100 to 1000 nM on Y641N EZH2 (setting [4]) and below 100 nM at EZH2 (rPRC2) (setting [5]). In addition, the EC50 in assay [1] (HeLa, 96 h) fell in the range of 2000 to 10000 nM.

On to `Cc1cc(C)c(CNC(=O)c2c(C)n([C@H](C)c3ccccc3)c3nc(N4CCNCC4)ncc23)c(O)n1` [Compound 169, (R)-N-((2-hydroxy-4,6-dimethylpyridin-3-yl)methyl)-6-methyl-7-(1-phenylethyl)-2-(piperazin-1-yl)-7H-pyrrolo[2,3-d]pyrimidine-5-carboxamide], for which the IC50 at Y641N EZH2 (setting [4]) was 100 to 1000 nM; on EZH2 (rPRC2) (setting [5]) it was below 100 nM. Also, the 50% effective concentration (EC50) in assay [1] (HeLa cells, MSD, 96 hours) is above 10000 nM.

Consider `Cc1ccc(C)c(-n2c(C)c(C(=O)NCc3c(C)cc(C)[nH]c3=O)c3ccccc32)c1` [Compound 191, N-((4,6-dimethyl-2-oxo-1,2-dihydropyridin-3-yl)methyl)-1-(2,5-dimethylphenyl)-2-methyl-1H-indole-3-carboxamide], for which the IC50 on Y641N EZH2 (setting [4]) and on EZH2 (rPRC2) (setting [5]) was below 100 nM throughout. The concentration giving a half-maximal response (EC50) in assay [1] (HeLa cells, MSD, 96 hours) lay within 2000 to 10000 nM.

With `COCC(C)n1c(C)c(C(=O)NCc2c(OC)cc(C)[nH]c2=O)c2ccccc21` (stereo not drawn) [Compound 219, N-((4-methoxy-6-methyl-2-oxo-1,2-dihydropyridin-3-yl)methyl)-1-(1-methoxypropan-2-yl)-2-methyl-1H-indole-3-carboxamide], the IC50 at Y641N EZH2 (setting [2]) and on EZH2 (rPRC2) (setting [3]) was below 100 nM in each case. Besides, the EC50 in assay [1] (HeLa, 96 h) is 400 to 2000 nM.

In the case of `COC(C)C(C)n1c(C)c(C(=O)NCc2c(C)cc(C)[nH]c2=O)c2cccnc21` (stereo not drawn) [Compound 241, N-((4,6-dimethyl-2-oxo-1,2-dihydropyridin-3-yl)methyl)-1-(3-methoxybutan-2-yl)-2-methyl-1H-pyrrolo[2,3-b]pyridine-3-carboxamide], the 50% inhibitory concentration (IC50) is 100 to 1000 nM on Y641N EZH2 (setting [2]) and below 100 nM against EZH2 (rPRC2) (setting [3]). The EC50 in assay [1] (HeLa, 96 h) fell in the range of 400 to 2000 nM.

Turning to `COc1cc(C)[nH]c(=O)c1CNC(=O)c1c(C)n(C(C)C(OC)C2CC2)c2ncccc12` (stereo not drawn) [Compound 283, 1-(1-cyclopropyl-1-methoxypropan-2-yl)-N-((4-methoxy-6-methyl-2-oxo-1,2-dihydropyridin-3-yl)methyl)-2-methyl-1H-pyrrolo[2,3-b]pyridine-3-carboxamide], the IC50 against Y641N EZH2 (setting [2]) was 100 to 1000 nM; at EZH2 (rPRC2) (setting [3]), below 100 nM. Moreover, the EC50 in assay [1] (HeLa, 96 h) was 400 to 2000 nM.

As for `COC[C@@H](C)n1c(C)c(C(=O)NCc2c(OC)cc(C)[nH]c2=O)c2cncnc21` [Compound 303, (R)-N-((4-methoxy-6-methyl-2-oxo-1,2-dihydropyridin-3-yl)methyl)-7-(1-methoxypropan-2-yl)-6-methyl-7H-pyrrolo[2,3-d]pyrimidine-5-carboxamide], the IC50 is 100 to 1000 nM against Y641N EZH2 (setting [2]) and below 100 nM against EZH2 (rPRC2) (setting [3]). In addition, in assay [1] (HeLa, 96 h), the EC50 lay within 400 to 2000 nM.

With `COc1cc(C)[nH]c(=O)c1CNC(=O)c1c(C)n(C(C)C2CCCNC2)c2ccccc12` (stereo not drawn) [Compound 315, N-((4-methoxy-6-methyl-2-oxo-1,2-dihydropyridin-3-yl)methyl)-2-methyl-1-(1-(piperidin-3-yl)ethyl)-1H-indole-3-carboxamide], the IC50 is 100 to 1000 nM on Y641N EZH2 (setting [2]) and below 100 nM on EZH2 (rPRC2) (setting [3]). Further, the EC50 in assay [1] (HeLa, 96 h) is above 10000 nM.
